Tests used:
[1] = In vitro conversion of pro-drug to parent compound by intestinal S9 fraction (rat); assay type: in vitro ADME; settings: Sprague-Dawley, pooled intestinal S9 fraction, 37° C., read-out: T1/2 of conversion to the parent compound
Description: (§1) Drug stock solutions (100 μM) were prepared in methanol by two subsequent 1:10 dilutions from 10 mM DMSO drug solutions.
(§2) Frozen pooled intestinal S9 fractions (final protein concentration 2 mg/mL), alamethicin (25 μg/mg). 0.IM phosphate buffer containing 1 mM magnesium chloride and NADPH (final concentration 1 mM) plus UDPGA (final concentration 3.5 mM) are pre incubated at 37° C. prior to the addition of test compound (final substrate concentration 1 μM; final DMSO concentration 0.25%) to initiate the reaction. An additional incubation is performed in the absence of cofactors (NADPH, UDPGA).
(§3) Incubation plate was incubated on a shaker with temperature controlled at 37° C. Sequential samples were removed at designated timepoints (0, 5, 15, 30, 60 and 120 mins) and quenched with 4 volumes of ice-cold acetonitrile (containing internal standard glyburide). At the end of the incubation, samples plates were centrifuged, and supernatants reconstituted in water. Samples were then analyzed by LC/MS to assess parent depletion.
(§4) A ratio of compound peak area/internal standard peak area for each time point is generated and subsequently expressed as % of the response at time 0. The percentage stability of a compound in intestinal S9 solution at time t is calculated as detailed in Equation 1: […]
(§5) The half-life (t1/2) is calculated using the Equation 2: […]

[2] = In vitro conversion of pro-drug to parent compound by intestinal S9 fraction (dog); assay type: in vitro ADME; settings: beagle, pooled intestinal S9 fraction, 37° C., read-out: T1/2 of conversion to the parent compound
Description: as §1, §2, §3, §4, §5

[3] = In vitro conversion of pro-drug to parent compound by intestinal S9 fraction (human); assay type: in vitro ADME; settings: pooled intestinal S9 fraction, 37° C., read-out: T1/2 of conversion to the parent compound
Description: as §1, §2, §3, §4, §5

GIRK1/4 = target: T1, GIRK1/4 (Homo sapiens, UniProt P48544+P48549); assay: GIRK1/4 in vitro activity assay (IonWorks Quattro population patch clamp); assay type: cell-based; settings: GIRK 1/4 HEK293 stable cells, inward potassium current; read-out: inhibitory activity (IC50)
T1 sequence (P48549 1-501): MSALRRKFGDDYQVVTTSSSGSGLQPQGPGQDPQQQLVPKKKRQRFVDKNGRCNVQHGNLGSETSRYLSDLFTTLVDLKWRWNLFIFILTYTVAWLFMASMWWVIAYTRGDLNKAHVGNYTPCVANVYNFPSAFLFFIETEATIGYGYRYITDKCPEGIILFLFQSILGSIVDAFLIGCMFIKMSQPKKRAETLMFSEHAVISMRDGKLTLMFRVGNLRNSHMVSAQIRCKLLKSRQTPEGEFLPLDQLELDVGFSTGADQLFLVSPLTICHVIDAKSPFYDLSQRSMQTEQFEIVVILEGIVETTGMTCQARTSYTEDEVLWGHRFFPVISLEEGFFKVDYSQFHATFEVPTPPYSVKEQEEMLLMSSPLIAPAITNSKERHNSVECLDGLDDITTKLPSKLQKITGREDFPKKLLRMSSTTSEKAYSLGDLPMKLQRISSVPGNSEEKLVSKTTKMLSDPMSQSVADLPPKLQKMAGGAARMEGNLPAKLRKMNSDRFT
T1 sequence (P48544 1-419): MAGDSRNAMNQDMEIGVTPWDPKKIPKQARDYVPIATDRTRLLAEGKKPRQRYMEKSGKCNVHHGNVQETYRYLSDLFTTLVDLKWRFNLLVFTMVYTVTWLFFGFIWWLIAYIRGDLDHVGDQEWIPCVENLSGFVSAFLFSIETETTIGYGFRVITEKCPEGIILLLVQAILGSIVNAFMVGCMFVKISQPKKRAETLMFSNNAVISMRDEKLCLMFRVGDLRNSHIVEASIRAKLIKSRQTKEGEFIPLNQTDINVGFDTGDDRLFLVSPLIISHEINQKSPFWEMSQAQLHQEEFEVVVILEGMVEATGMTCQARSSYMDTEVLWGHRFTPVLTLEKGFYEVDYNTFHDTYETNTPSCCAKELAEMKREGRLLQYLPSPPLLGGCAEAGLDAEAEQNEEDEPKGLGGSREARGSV
Description: The GIRK1/4 activity of the parent compounds formed after cleavage upon hydrolysis of the phosphoric acid ester group of the compounds according to the present disclosure was assessed by the following in vitro method.
• a. External buffer: 10 mM NaCl, 50 mM Na Gluconate, 80 mM K Gluconate, 1.8 mM CaCl2, 1 mM MgCl2, 10 mM HEPES, 10 mM Glucose, pH 7.4; osmolarity […]. • b. Internal buffer: 30 mM KCl, 100 mM K Gluconate, 1 mM MgCl2, 10 mM HEPES, 1 mM EGTA, 10 mM NaCl, pH 7.2; osmolarity […].
• c. Prepare seven-fold compound dilution series (10 mM to 20 μM) in 100% DMSO, in 384-well polypropylene plates. • d. Propafenone (Sigma Aldrich, catalog number P4670) was used as a positive control and DMSO for neutral control. • e. Resuspend 1 μl of compounds in DMSO into 66.7 μl external buffer in 384-well polypropylene plate and load into Plate 1 section of Molecular Devices Quattro.
• f. […]
Quattro was controlled using IonWorks v2 software to perform the following steps: • p. […] Measured magnitude of inward potassium current at time point between 1200-1220 ms from start of Pulse 1 (i.e. during the voltage ramp phase). • t. […]
IC50 values were calculated by plotting the percentage of current inhibition (normalized to the DMSO-only control) as a function of compound concentration using standard data analysis software.

Row | SMILES | half-life at 1 μM ([1]; rat intestinal S9, + cofactor (NADPH, UDPGA)) | half-life at 1 μM ([1]; rat intestinal S9, − cofactor) | half-life at 1 μM ([2]; dog intestinal S9, + cofactor (NADPH, UDPGA)) | half-life at 1 μM ([2]; dog intestinal S9, − cofactor) | half-life at 1 μM ([3]; human intestinal S9, + cofactor (NADPH, UDPGA)) | half-life at 1 μM ([3]; human intestinal S9, − cofactor) | IC50 (GIRK1/4)
1 | CNC(=O)[C@@H](O)COc1ncc(Cl)c2c1c(=O)cc(C)n2-c1c(Cl)cc(OCCOP(=O)(O)O)cc1Cl.[Ca] [Example 1a, (S)-2-(3,5-dichloro-4-(8-chloro-5-(2-hydroxy-3-(methylamino)-3-oxopropoxy)-2-methyl-4-oxo-1,6-naphthyridin-1(4H)-yl)phenoxy)ethyl dihydrogen phosphate calcium salt] | 14.4 min | 16.5 min | 45.3 min | 46 min | 88.7 min | 86.7 min | 
2 | CNC(=O)[C@@H](O)COc1ncc(Cl)c2c1c(=O)cc(C)n2-c1c(Cl)cc(OCCOP(=O)(O)O)cc1Cl [Example 1, (S)-2-(3,5-dichloro-4-(8-chloro-5-(2-hydroxy-3-(methylamino)-3-oxopropoxy)-2-methyl-4-oxo-1,6-naphthyridin-1 (4H)-yl)phenoxy)ethyl dihydrogen phosphate] |  |  |  |  |  |  | > 10 µM
3 | CNC(=O)[C@H](COc1ncc(Cl)c2c1c(=O)cc(C)n2-c1c(Cl)cc(OCCO)cc1Cl)OP(=O)(O)O [Example 2, (S)-3-((8-chloro-1-(2,6-dichloro-4-(2-hydroxyethoxy)phenyl)-2-methyl-4-oxo-1,4-dihydro-1,6-naphthyridin-5-yl)oxy)-1-(methylamino)-1-oxopropan-2-yl dihydrogen phosphate] |  |  |  |  |  |  | > 10 µM

Source: patent publication US20240391941A1, “NAPHTHYRIDINONE DERIVATIVES FOR THE TREATMENT OF A DISEASE OR DISORDER” (Novartis AG, priority 2023, published 2024)
